The text below walks through data of patent US20070161550A1, “Antiviral compositions which inhibit paramyxovirus infection” (priority 2003, published 2007).

In one assay the test system is RSV. Nature of the assay: Inhibition of RSV infection of A549 monolayers. Type of assay: cell-based, respiratory syncytial virus (RSV). Conditions: prior treatment of A549 monolayers; data not shown.
A further assay concerns rA2cpΔ118. Briefly: Inhibition of infectivity of RSV with truncated G protein, HEp-2 plaque assay. The format is cell-based, respiratory syncytial virus (RSV). Conditions: Table 15 Experiment 1; strain rA2cpΔ118; 10 μg/ml, treated 1 h before infection; 5 days. The protocol: (§1) Virus stocks. Wild type RSV strains A2 and B1 (Wright et al., 1973) and mutant RSV strains cpts248/404 (Ackerlind et al., 1988), rA2 cpts248/404ASH (Crowe et al., 1994) and cp32/D1, deficient in SH and G genes (nucleotides 4064-5462) (Karron et al., 1997), were propagated as previously described (Hancock et al., 1996) in HEp-2 cells (ATCC CCL 23) cultured in complete medium (DMEM supplemented with 2 mM L-glutamine, 2% penicillin/streptomycin and 10% (V/V) FBS, 37° C., 5% CO2). The cp32/D1 mutant was isolated from the B1 strain using methodologies previously described for cp52 (Crowe et al., 1996; Karron et al., 1997). A recombinant RSV, (rA2 cpΔG118) genetically truncated at amino acid 117 of G protein was also used in the investigation. […]
(§2) Inhibition of virus infectivity in vitro. […] Anti-viral activity was also assessed 1 hour after the cells were infected, or following simultaneous exposure of the monolayers to virus in a 1:1 mixture with the indicated doses of chemokines or CCL5 peptides. […]
(§3) Plaque assay. […] Bound antibody was detected using 0.05% 4-chloro-1-naphtol containing 0.1% H2O2 in PBS. After enumeration of plaques, the mean percent infectivity (±1 standard deviation of triplicate wells) was calculated relative to monolayers exposed to virus in culture medium alone without chemokine or anti-chemokine receptor antibody. […]

In a further assay the test system is RSV A2. Nature of the assay: Inhibition of RSV infectivity in vitro, plaque assay on HEp-2 cell monolayers. The format is cell-based, respiratory syncytial virus (RSV). Here is the method: (§4) Inhibition of virus infectivity in vitro. HEp-2 cell monolayers were grown in 96-well tissue culture plates (Falcon, Becton Dickson and Co.; Franklin Lakes, N.J.) with complete medium. The monolayers were pre-treated for 1 hour at 4° C. or 37° C. in triplicate wells with the indicated amounts of recombinant chemokine or anti-chemokine receptor antibody. After removal of chemokine or antibody, the monolayers were infected 1 hour at the same temperature with the denoted wild type or mutant RSV strain and then overlaid with 2% Sephadex (Amersham Biosciences; Piscataway, N.J.). Anti-viral activity was also assessed 1 hour after the cells were infected, or following simultaneous exposure of the monolayers to virus in a 1:1 mixture with the indicated doses of chemokines or CCL5 peptides. The inhibitory properties of the anti-chemokine receptor antibodies were tested alone or in combination at doses ranging from 5 to 100 μg/ml culture medium.
Plaque assay. Virus plaques were visualized as previously described (Hancock et al. 1996) using anti-F protein (L4) mAb (Paradiso et al., 1991; Walsh and Hruska, 1983). Thereafter, cells were rinsed with blotto blocking agent (PBS, 5% powdered milk) and incubated with horseradish peroxidase-conjugated goat anti-mouse IgG (Kirkegaard and Perry Laboratories, Inc.; Gaithersburg, Md.). Bound antibody was detected using 0.05% 4-chloro-1-naphtol containing 0.1% H2O2 in PBS. After enumeration of plaques, the mean percent infectivity (±1 standard deviation of triplicate wells) was calculated relative to monolayers exposed to virus in culture medium alone without chemokine or anti-chemokine receptor antibody.

The next assay has as its system cp-RSV. Nature of the assay: Inhibition of infectivity of cp-RSV, HEp-2 plaque assay. Type of assay: cell-based, respiratory syncytial virus (RSV). Conditions: Table 15 Experiment 1; strain cp-RSV; 10 μg/ml, treated 1 h before infection. The protocol:
as §4
(§5) Plaque assay. […] Bound antibody was detected using 0.05% 4-chloro-1-naphtol containing 0.1% H2O2 in PBS. After enumeration of plaques, the mean percent infectivity (±1 standard deviation of triplicate wells) was calculated relative to monolayers exposed to virus in culture medium alone without chemokine or anti-chemokine receptor antibody.

A further assay relates to HEp-2 cells. Nature of the assay: Binding of biotinylated CCL5 peptides to HEp-2 cell monolayers (ELISA). Details: species or system human. To be noted: FIG. 3, viable HEp-2 cells at 4° C. Here is the method:
Interaction of CCL5 peptides with HEp-2 cells. An ELISA was used to assess the relative binding of synthetic peptides to HEp-2 cell monolayers. In brief, 96-well plates (Falcon) were seeded with 3×10^4 HEp-2 cells per well in 0.2 ml of complete medium. After overnight incubation (37° C., 5% CO2), the monolayers were cooled on ice for approximately 15 minutes. The biotinylated peptides were added to duplicate wells in ascending doses from 0.49 μg to 500 μg per ml DMEM (supplemented with 1% FBS, 2% penicillin/streptomycin, and 2 mM L-glutamine) and incubated at 4° C. for 1 hour. The monolayers were then fixed (20 minutes at RT) with 80% methanol (J T Baker; Phillipsburg, N.J.). […] Thereafter, the monolayers were incubated (1 hour at RT) with streptavidin-HRP (Zymed; San Francisco, Calif.). The wells were developed with TMB One-Step Substrate Solution (DAKO; Carpinteria, Calif.). Optical density was determined (450 nm, reference at 550 nm) with a Molecular Devices Versamax microplate reader (Sunnyvale, Calif.).

A further assay has as its system cp32/D1. Nature of the assay: Inhibition of infectivity of mutant RSV strain lacking SH and G proteins, HEp-2 plaque assay. Conditions: Table 15 Experiment 2, 10 μg/ml, treated 1 h before infection, 5 days. Type of assay: cell-based, respiratory syncytial virus (RSV). The protocol: as §1, §2, §3
The subject of another assay is rA2 cpts248/404ΔSH. Nature of the assay: Inhibition of infectivity of mutant RSV strain lacking SH protein, HEp-2 plaque assay. Type of assay: cell-based, respiratory syncytial virus (RSV). Conditions: strain 248/404ΔSH, 10 μg/ml, treated 1 h before infection, 5 days. Here is the method:
(§6) Virus stocks. Wild type RSV strains A2 and B1 (Wright et al., 1973) and mutant RSV strains cpts248/404 (Ackerlind et al., 1988), rA2 cpts248/404ASH (Crowe et al., 1994) and cp32/D1, deficient in SH and G genes (nucleotides 4064-5462) (Karron et al., 1997), were propagated as previously described (Hancock et al., 1996) in HEp-2 cells (ATCC CCL 23) cultured in complete medium (DMEM supplemented with 2 mM L-glutamine, 2% penicillin/streptomycin and 10% (V/V) FBS, 37° C., 5% CO2). The cp32/D1 mutant was isolated from the B1 strain using methodologies previously described for cp52 (Crowe et al., 1996; Karron et al., 1997). A recombinant RSV, (rA2 cpΔG118) genetically truncated at amino acid 117 of G protein was also used in the investigation. All virus stocks were prepared from cell lysates clarified by low speed (200 g) centrifugation 15 minutes at 4° C.
as §4, with “The inhibitory properties of the anti-chemokine receptor antibodies were tested alone or in combination at doses ranging from 5 to 100 μg/ml culture medium.” left out
as §3

The subject of the next assay is RSV B1. Nature of the assay: Inhibition of infectivity of wild type RSV B1, HEp-2 plaque assay. Type of assay: cell-based, respiratory syncytial virus (RSV). Conditions: Table 15 Experiment 2; strain B1; 10 μg/ml, treated 1 h before infection; 5 days. The protocol:
as §1, §2, §5

For a further assay, the system named is cpts248/404. Nature of the assay: Inhibition of infectivity of mutant RSV strain 248/404, HEp-2 plaque assay. Type of assay: cell-based, respiratory syncytial virus (RSV). Conditions: treated 1 h before infection, 5 days. Here is the method:
as §6
as §4, with “The inhibitory properties of the anti-chemokine receptor antibodies were tested alone or in combination at doses ranging from 5 to 100 μg/ml culture medium.” left out
as §5

The subject of the next assay is chemotaxis. To be noted: cited from earlier work.
The mark [1] stands for this setting: Table 15 Experiment 1, strain A2, 10 μg/ml, treated 1 h before infection, 3 days.
[2] abbreviates: Table 15 Experiment 1, 10 μg/ml.

Regarding “CCL5: recombinant human chemokine CCL5 (RANTES), full length polypeptide of SEQ ID NO:1”, in the assay with RSV, the “inhibition of infection with RSV (in words)” value was “inhibited infection with RSV”. In addition, the “Percent Infectivity” value was 26% with rA2cpΔ118; 73.6 ± 20.6% with RSV A2 (Table 10, 1 μg/ml, exposed 1 hour before infection, plaques after 3 days); 25.0 ± 7.2% with RSV A2 (Table 10, 5 μg/ml, exposed 1 hour before infection, plaques after 3 days); 29.2 ± 16.7% in the assay with RSV A2 (Table 10, 10 μg/ml, exposed 1 hour before infection, plaques after 3 days, relative to control wells (100%)); “approximately 30%” in the assay on RSV A2 (Table 10, 10 μg/ml, exposed 1 hour before infection, plaques after 3 days, relative to control wells (100%), listed as rCCL5); 101.0 ± 4.0% in the assay with RSV A2 (Table 11, 1 μg/ml, exposed 1 hour before infection, plaques after 3 days). In addition, the “Percent Infectivity” value with RSV A2 (Table 11, 5 μg/ml, exposed 1 hour before infection, plaques after 3 days) is reported as 42.0 ± 3.0%; with RSV A2 (Table 11, 10 μg/ml, exposed 1 hour before infection, plaques after 3 days) it was 16.0 ± 8.0%; in the assay with RSV A2 (Table 11, 10 μg/ml, exposed 1 hour before infection, plaques after 3 days, listed as rCCL5), about 20%; with RSV A2 (Table 12, 10 μg/ml, 1 hour after removal of RSV A2 (POST)), 101 ± 12%; in the assay with RSV A2 (Table 12, 10 μg/ml, 1 hour prior to infection (PRE)), 22 ± 11%; in the assay with RSV A2 (Table 13, 10 μg/ml, 1 hour prior to infection (PRE)), 17. For the same molecule, the “Percent Infectivity” value in the assay with RSV A2 (Table 13, 10 μg/ml, CCL5 denatured by heat (HEAT)) was 75; in the assay with RSV A2 (Table 13, 10 μg/ml, simultaneously admixed with RSV (SIM)) it was 33; in the assay on RSV A2 (Table 14, 5 μg, pre-treated 1 hour at 4° C.), 37%; in the assay with RSV A2 (Table 14, 5 μg, pre-treated 1 hour at 37° C.) it was 41%; with RSV A2 (Table 14, 10 μg, pre-treated 1 hour at 4° C.), 23%; with RSV A2 (Table 14, 10 μg, pre-treated 1 hour at 37° C.) it was 4%. Besides, the “Percent Infectivity” value in the assay on RSV A2 (Table 14, 20 μg, pre-treated 1 hour at 4° C.) was 14%; with RSV A2 (Table 14, 20 μg, pre-treated 1 hour at 4° C., listed as rCCL5), “approximately 14%”; in the assay on RSV A2 (Table 14, 20 μg, pre-treated 1 hour at 37° C.), 16%; with RSV A2 (setting [1]), 33%; in the assay on RSV A2 (Table 15 Experiment 2, strain A2, 10 μg/ml, treated 1 h before infection, 3 days), 28%; in the assay on cp-RSV it was 64%. Further, the “Percent Infectivity” value in the assay on cp32/D1 is recorded as 41%; in the assay with rA2 cpts248/404ΔSH (Table 15 Experiment 1), 34%; in the assay on rA2 cpts248/404ΔSH (Table 15 Experiment 2) it was 13%; in the assay with RSV B1, 24%; in the assay with cpts248/404 (setting [2]) it was 28%; with cpts248/404 (Table 15 Experiment 2, 10 μg/ml), 25%. The IC50 in the assay with RSV A2 (prior exposure (1 hour) of HEp-2 cell monolayers, read-out: median inhibitory concentration (IC50)) stood at 726 nM. Further, in the assay on HEp-2 cells, the “binding to the epithelial cell monolayer (in words)” value was “readily bound to the epithelial cell monolayer”.

Regarding “Ac-YFYEKIHARPLPRAIYAFC-NH2 [SEQ ID NO:19, retroinverted peptide of CCL5 residues 11-29 in reverse order]”, the “effect on chemotaxis (in words)” value in the assay with chemotaxis is on record as “antagonized chemotaxis”.

B1: met-CCL5: CCL5 of SEQ ID NO:1 with a methionine NH2-terminal to Ser1; inactive as chemokine agonist (protein, listed as Homo sapiens)
chain: MSPYSSDTTPCCFAYIARPLPRAHIKEYFYTSGKCSNPAVVFVTRKNRQVCANPEKKWVREYINSLEMS
modifications: N-terminal methionine
For B1, the “Percent Infectivity” value was determined as 41% in the assay with rA2cpΔ118; 31% in the assay with RSV A2 (setting [1]); 64% with cp-RSV; 32% in the assay on rA2 cpts248/404ΔSH (Table 15 Experiment 1); 26% in the assay with cpts248/404 (setting [2]). For the same molecule, the “infectivity, percent of control cells” value is listed as “approximately 80%” in the assay with RSV A2 (FIG. 1, 1.25 μg met-CCL5/ml, prior treatment) and “approximately 25%” in the assay on RSV A2 (FIG. 1, 20 μg met-CCL5/ml, pre-treated one hour before infection). Further, the “inhibition of infectivity (in words)” value in the assay on RSV A2 (FIG. 1, doses of 0.313 or 0.156 μg met-CCL5/ml) is “not inhibitory”.
